# Where a name gives a salt, the structure may show the parent alone.
# Target: T1, MASP-2 (CCP1-CCP2-SP) (Homo sapiens, UniProt O00187)
# T1 construct: 15 μL of Enzyme MASP-2 (CCP1-CCP2-SP) in Assay Buffer
# Assay: Enzymatic Assay for MASP-2 (fluorogenic substrate)
# Format: biochemical
# Conditions: room temperature, 20 mM HEPES pH 7.4, 140 mM NaCl, 0.1% Tween 20, 20 min
# Description: Enzymatic Assay for MASP-2
# The MASP-2 assay utilizes a fluorogenic substrate, based on the cleavage site for its natural substrate C2. The assay is run at room temperature in an assay buffer containing 20 mM HEPES, pH 7.4, 140 mM NaCl and 0.1% Tween 20. Assay parameters are adjusted such that the assay is linear with respect to time, enzyme, and substrate concentrations. Under these optimized assays conditions, IC50 values are equivalent to Ki values, except in a few cases of “tight binding” inhibitors. Cases of “tight binding” or possible “slow binding” inhibitors are handled by the methods described in Copeland R. A. (2013) Evaluation of Enzyme Inhibitors in Drug Discovery. 2nd Ed., John Wiley and Sons, Inc., Chapters 5-7.
# The MASP-2 assay protocol is carried out as follows. Test compounds are serially diluted in DMSO and then 100 nL of each dilution is transferred to the assay plate(s). 10 μL of Assay Buffer is added, followed by 15 μL of Enzyme MASP-2 (CCP1-CCP2-SP) in Assay Buffer. 15 μL of Substrate in Assay Buffer is then added and mixed to start the reactions. After 20 min at room temperature, 15 μL of a stop solution (0.1 M acetic acid) is added, mixed and the plates are read on a SpectraMax i3× Microplate Reader and exported as Excel files. Each assay plate included a “no inhibitor” (DMSO Only) control, a “no enzyme” control and a reference inhibitor control. % Activity values=100*(average test comp. fluorescence-average “no enzyme” fluorescence)/(average “DMSO only” fluorescence-average “no enzyme” fluorescence). IC50 and Ki values are very reproducible, falling well within ±2-fold.
# T1 sequence (O00187 445-686 limits assumed): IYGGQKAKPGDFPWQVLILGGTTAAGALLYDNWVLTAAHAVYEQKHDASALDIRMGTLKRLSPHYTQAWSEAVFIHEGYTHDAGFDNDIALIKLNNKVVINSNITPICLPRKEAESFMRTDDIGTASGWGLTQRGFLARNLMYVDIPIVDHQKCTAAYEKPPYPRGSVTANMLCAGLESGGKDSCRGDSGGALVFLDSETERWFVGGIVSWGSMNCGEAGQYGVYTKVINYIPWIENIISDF
# T1 sequence (O00187 287-444 partner limits assumed): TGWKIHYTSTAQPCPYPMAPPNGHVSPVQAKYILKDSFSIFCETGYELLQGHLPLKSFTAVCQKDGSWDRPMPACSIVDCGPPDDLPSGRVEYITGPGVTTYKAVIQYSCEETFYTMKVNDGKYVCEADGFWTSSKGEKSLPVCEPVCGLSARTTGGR
row,Ki,SMILES
1,< 500 nM,"N=C(N)c1ccc(CNC(=O)[C@@H]2C[C@@H](c3ccccc3)CN2C(=O)[C@H](N)CCc2ccccc2)cc1 [Compound I-11, (2S,4S)-1-((R)-2-amino-4-phenylbutanoyl)-N-(4-carbamimidoylbenzyl)-4-phenylpyrrolidine-2-carboxamide dihydrochloride]"
2,< 500 nM,"N=C(N)c1ccc(CNC(=O)[C@@H]2CC(n3cccn3)CN2C(=O)[C@H](N)CCc2ccccc2)cc1 (stereo partly drawn) [Compound I-22, Dihydrochloride]"
3,< 500 nM,"COC(=O)[C@@H]1C[C@@H](C(=O)NCc2ccc(C(=N)N)cc2)N(C(=O)[C@H](N)CCc2ccccc2)C1 [Compound I-1, Methyl (3R,5S)-1-((R)-2-amino-4-phenylbutanoyl)-5-((4-carbamimidoylbenzyl)carbamoyl)pyrrolidine-3-carboxylate ditrifluoroacetate]"
4,< 500 nM,"N#C[C@H]1C[C@@H](C(=O)NCc2ccc(C(=N)N)cc2)N(C(=O)[C@H](N)CCc2ccccc2)C1 [Compound I-6, (2S,4S)-1-((R)-2-amino-4-phenylbutanoyl)-N-(4-carbamimidoylbenzyl)-4-cyanopyrrolidine-2-carboxamide ditrifluoroacetate]"
5,< 500 nM,"COC[C@H]1C[C@@H](C(=O)NCc2ccc(C(=N)N)cc2)N(C(=O)[C@H](N)CCc2ccccc2)C1 [Compound I-2, (2S,4S)-1-((R)-2-amino-4-phenylbutanoyl)-N-(4-carbamimidoylbenzyl)-4-(methoxymethyl)pyrrolidine-2-carboxamide dihydrochloride]"
6,< 500 nM,"N=C(N)c1ccc(CNC(=O)[C@@H]2C[C@H](c3ccccc3)CN2C(=O)[C@H](N)CCc2ccccc2)cc1 [Compound I-3, (2S,4R)-1-((R)-2-amino-4-phenylbutanoyl)-N-(4-carbamimidoylbenzyl)-4-phenylpyrrolidine-2-carboxamide dihydrochloride]"
